Where two headings read alike, the source gives them in different places. Residues, ends and D or L forms follow the SMILES beside them.
Experiments:
[1] = 1,000 ppm in sterile distilled water, warmed at 121° C., maximum warming time of 30 minutes
[2] = 1,000 ppm in sterile distilled water, stored at 45° C., maximum observation time of 75 days

For `CC[C@H](C)[C@H](NC(=O)[C@H](CC(C)C)NC(=O)[C@H](Cc1ccccc1)NC(=O)[C@@H](N)CCCCN)C(=O)N[C@@H](CCCCN)C(=O)O` [peptide of the present invention, KFLIK] (H-KFLIK-OH; N-terminus and C-terminus assumed), the “stability of the peptide (HPLC assay)” value [1] was “maintained” and the “stability of the peptide (HPLC assay)” value [2] was “maintained”.
